ChEMBL document CHEMBL1151564, “Arylacetamide kappa-selective opioid ligands” (Bioorg Med Chem Lett, 1997)
pKi: −log10 of the molar value.

Legend:
Mu-type opioid receptor = Mu-type opioid receptor (Cavia porcellus, UniProt P97266); experiment: Compound was evaluated for the inhibition of Opioid receptor mu 1 binding to guinea pig brain membranes, using [3H]- DAMGO as radioligand
[1] = molecular target: Kappa-type opioid receptor (Cavia porcellus, UniProt P41144); experiment: Compound was evaluated for the inhibition of Opioid receptor kappa1 binding to guinea pig brain membranes, using 1 nM [3H]- U69,593 as radioligand
[2] = Total binding was evaluated by Phycoerythrin fluorescent labeling of R1EGO mouse thymoma cells; assay type: functional
[3] = Nonspecific binding was evaluated by Phycoerythrin fluorescent labeling of R1EGO mouse thymoma cells; assay type: functional
[4] = Percent specific binding was evaluated by Phycoerythrin fluorescent labeling of R1EGO mouse thymoma cells; assay type: functional
[5] = Specific binding was evaluated by Phycoerythrin fluorescent labeling of R1EGO mouse thymoma cells; assay type: functional

Kappa-type opioid receptor, sequence (P41144 whole entry): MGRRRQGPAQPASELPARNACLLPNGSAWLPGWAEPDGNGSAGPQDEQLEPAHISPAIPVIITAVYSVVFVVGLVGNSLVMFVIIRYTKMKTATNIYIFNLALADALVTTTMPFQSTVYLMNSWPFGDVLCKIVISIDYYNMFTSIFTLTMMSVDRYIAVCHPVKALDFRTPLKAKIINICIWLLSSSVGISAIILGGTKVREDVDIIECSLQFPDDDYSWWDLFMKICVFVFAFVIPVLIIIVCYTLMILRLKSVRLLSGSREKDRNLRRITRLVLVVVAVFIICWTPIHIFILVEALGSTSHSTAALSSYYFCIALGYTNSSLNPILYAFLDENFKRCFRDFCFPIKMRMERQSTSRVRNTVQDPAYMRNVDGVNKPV
Mu-type opioid receptor, sequence (P97266 whole entry): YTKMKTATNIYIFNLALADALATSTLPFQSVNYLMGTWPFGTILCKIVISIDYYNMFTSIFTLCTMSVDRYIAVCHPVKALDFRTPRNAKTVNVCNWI

## CN(C(=O)Cc1ccc(Cl)c(Cl)c1)C(CN1CCCC1)c1cccc(N/C(S)=N/c2ccc(-c3c4ccc(=O)cc-4oc4cc(O)ccc34)c(C(=O)O)c2)c1 (stereo unspecified)
Mu-type opioid receptor
  pKi: 6.75
[1]
  pKi: 8.09

## CN(C(=O)Cc1ccc(Cl)c(Cl)c1)[C@H](CN1CCCC1)c1cccc(N/C(S)=N/c2ccc(-c3c4ccc(=O)cc-4oc4cc(O)ccc34)c(C(=O)O)c2)c1
Mu-type opioid receptor
  pKi: 7.01
[2]
  Total binding: 64
[1]
  pKi: 8.85
[3]
  Non-specific binding: 7
[4]
  Binding: 91%
[5]
  Specific binding: 57

## CN(C(=O)Cc1ccc(Cl)c(Cl)c1)[C@@H](CN1CCCC1)c1cccc(N/C(S)=N/c2ccc(-c3c4ccc(=O)cc-4oc4cc(O)ccc34)c(C(=O)O)c2)c1
Mu-type opioid receptor
  pKi: 5.92
[2]
  Total binding: 12
[1]
  pKi: 6.86
[3]
  Non-specific binding: -5

## CC(=O)Nc1cccc([C@H](CN2CCCC2)N(C)C(=O)Cc2ccc(Cl)c(Cl)c2)c1
Mu-type opioid receptor
  pKi: 5.98
[1]
  pKi: 7.76

## CC(=O)Nc1cccc([C@@H](CN2CCCC2)N(C)C(=O)Cc2ccc(Cl)c(Cl)c2)c1
Mu-type opioid receptor
  pKi: 8.08
[1]
  pKi: 10.07
